Reference: patent publication US20040122013A1, “Analogs of nocicettin” (priority 2002, published 2004)
Like-named read-outs stand apart in the source and are kept apart here.

How the values were obtained:
[1] = test system: NOP receptor; assay: Antagonism of agonist effects by naloxone and [Nphe1]N/OFQ(1-13)NH2; conditions: tested vs the novel agonist compounds or vs N/OFQ
Experimental: In isolated tissues the compounds having structure [Phe^1Ψ(CO—NH)Gly^2] mimicked the effects of N/OFQ inducing similar maximal effects, thus acting as full agonists, while those with the structure [Phe^1Ψ(CH2—NH)Gly^2] behaved as partial agonists producing lower maximal effects than N/OFQ. […] Some of the compounds evaluated in vitro were also tested in a battery of in vivo assays of biological functions regulated by N/OFQ. In all the assays most of the analogs mimicked the effects evoked by the natural peptide. In the locomotor activity assay some compounds have been tested at 1 nmol i.c.v. dose. These mimicked the inhibitory effect of N/OFQ, however while the effects of the natural peptide lasted for about 20 min, those induced by some of the novel derivatives were still evident after several hours. […] Similar results were also obtained in the mouse tail withdrawal assay were the compounds mimicked the hyperalgesic actions of N/OFQ.

[2] = test system: N/OFQ-sensitive isolated tissues; assay: N/OFQ-sensitive electrically stimulated isolated tissues (mouse and rat vas deferens, guinea pig ileum)
Excerpt: The compounds of the Table have been evaluated in vitro in several N/OFQ-sensitive isolated tissues from various species such as the rat, mouse and guinea pig and in Chinese hamster ovary cells expressing the human recombinant NOP receptor (CHOhNop). The conditions adopted for studying the effects of the compounds in the electrically stimulated tissues (mouse and rat vas deferens, guinea pig ileum) are described in Bigoni et al. (Naunyn Schmiedebergs Arch Pharmacol 359, 160-7, 1999, herein incorporated by reference), whereas the conditions adopted for investigating the effects in CHOhNop cells are disclosed in Okawa et al. (Br J Pharmacol 127, 123-130, 1999, herein incorporated by reference).

[3] = test system: mouse vas deferens; assay: Electrically induced twitch inhibition, mouse vas deferens (mVD)
[4] = test system: mice; assay: Mouse tail withdrawal assay (pronociception); type: in vivo
[5] = test system: guinea pig ileum; assay: Electrically induced twitch inhibition, guinea pig ileum (gpI)
[6] = test system: mice; type: in vivo, mouse
[7] = biological target: T1, human recombinant NOP receptor (Homo sapiens, UniProt P41146); assay: biochemical; conditions: CHOhNOP, stimulation of GTPγS binding
T1 construct: expressed in transfected cells; host or cells: Chinese hamster ovary (CHO) cells
T1 sequence (P41146 whole entry): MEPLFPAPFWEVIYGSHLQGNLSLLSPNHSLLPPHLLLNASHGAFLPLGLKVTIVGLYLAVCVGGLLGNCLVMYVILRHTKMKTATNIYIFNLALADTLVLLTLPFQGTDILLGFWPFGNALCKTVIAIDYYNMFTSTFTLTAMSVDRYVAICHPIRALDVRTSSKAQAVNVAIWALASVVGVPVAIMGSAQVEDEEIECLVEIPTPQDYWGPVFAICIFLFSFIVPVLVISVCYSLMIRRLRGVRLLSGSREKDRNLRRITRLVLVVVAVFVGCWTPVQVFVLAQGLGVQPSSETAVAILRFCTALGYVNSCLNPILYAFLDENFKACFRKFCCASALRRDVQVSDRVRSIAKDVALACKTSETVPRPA

[8] = biological target: T1, human recombinant NOP receptor; assay: cell-based; conditions: CHOhNOP, cAMP inhibition
[9] = biological target: T2, recombinant human NOP receptors expressed in HEK293 cells (Homo sapiens, UniProt P41146); conditions: Okada et al. 2000; cited from earlier work
T2 construct: host or cells: HEK293 cells
T2 sequence (P41146 whole entry): as above

[10] = locomotor activity depression, i.c.v., mice

Compound	Emax [3] [%]	pEC50 [3]	Duration of action [4] [min]	Effective dose [4] [nmol]	Emax [5] [%]	pEC50 [5]	Effective dose [6, 10] [nmol]	also measured
[Nphe^1]N/OFQ(1-13)NH2								pA2 [1]: 6.0-6.4
H-Phe-Ψ(CH2NH)-Gly-Gly-(pF)Phe-Thr-Gly-Ala-Arg-Lys-Ser-Ala-Arg-Lys-Arg-Lys-Asn-Gln-NH2 [b)]								Intrinsic activity (full or partial agonist) ([2]; isolated tissues, maximal effect compared with N/OFQ): partial agonist activity
[(pI)Phe^4]-N/OFQ-NH2								Potency compared with N/OFQ ([2]; isolated tissues): lower
CC(C)C[C@H](NC(=O)[C@H](CCCCN)NC(=O)[C@H](CCCNC(=N)N)NC(=O)[C@H](C)NC(=O)[C@H](CO)NC(=O)[C@H](CCCCN)NC(=O)[C@H](CCCNC(=N)N)NC(=O)[C@H](C)NC(=O)CNC(=O)[C@@H](NC(=O)[C@H](Cc1ccccc1)NC(=O)CNC(=O)CNC(=O)[C@@H](N)Cc1ccccc1)[C@@H](C)O)C(=O)N[C@@H](C)C(=O)N[C@@H](CC(N)=O)C(=O)N[C@@H](CCC(N)=O)C(=O)O [N/OFQ, reference compound]	91 ± 2	7.77	15	1	56 ± 5	8.04	1	
C[C@H](NC(=O)CNC(=O)[C@@H](NC(=O)[C@H](Cc1ccc(F)cc1)NC(=O)CNC(=O)CNC(=O)[C@@H](N)Cc1ccccc1)[C@@H](C)O)C(=O)N[C@@H](CCCNC(=N)N)C(=O)N[C@@H](CCCCN)C(=O)N[C@@H](CO)C(=O)N[C@@H](C)C(=O)N[C@@H](CCCNC(=N)N)C(=O)N[C@@H](CCCCN)C(=O)N[C@@H](CCCNC(=N)N)C(=O)N[C@@H](CCCCN)C(=O)N[C@@H](CC(N)=O)C(=O)N[C@@H](CCC(N)=O)C(N)=O [UFP-102]	94 ± 1	9.36	>120	0.1	55 ± 4	8.98	0.1	EC50 [7]: 0.0759 nM; Emax [7]: 12.26 ± 1.37; EC50 [8]: 0.0676 nM; Emax [8]: 104 ± 3%; Duration of action [6, 10]: >3 h; Potency relative to N/OFQ ([6]; mouse, in vivo): more than 10 fold; Intrinsic activity (full or partial agonist) [2]: full agonist activity; Potency compared with N/OFQ [2]: higher than that of N/OFQ
[Arg^14,Lys^15]N/OFQ								Potency relative to N/OFQ [9]: 17 fold
